Reference: patent US20150018403A1, “FLUORENE-AMIDE COMPOUNDS AND PHARMACEUTICAL USE THEREOF” (JAPAN TOBACCO INC., priority 2013, published 2015)

Key:
human PDHK1 (hPDHK1) = molecular target: T1, human PDHK1 (hPDHK1) (Homo sapiens, UniProt Q15118); assay: Inhibitory action of PDHK1 activity in vitro (residual PDH activity after kinase reaction); assay type: biochemical; details: PDH/hPDHK1 complex, 45 min kinase reaction at room temperature
T1 construct: made in house; host or cells: Escherichia coli BL21(DE3), pET17b vector
T1 sequence (Q15118 29-436): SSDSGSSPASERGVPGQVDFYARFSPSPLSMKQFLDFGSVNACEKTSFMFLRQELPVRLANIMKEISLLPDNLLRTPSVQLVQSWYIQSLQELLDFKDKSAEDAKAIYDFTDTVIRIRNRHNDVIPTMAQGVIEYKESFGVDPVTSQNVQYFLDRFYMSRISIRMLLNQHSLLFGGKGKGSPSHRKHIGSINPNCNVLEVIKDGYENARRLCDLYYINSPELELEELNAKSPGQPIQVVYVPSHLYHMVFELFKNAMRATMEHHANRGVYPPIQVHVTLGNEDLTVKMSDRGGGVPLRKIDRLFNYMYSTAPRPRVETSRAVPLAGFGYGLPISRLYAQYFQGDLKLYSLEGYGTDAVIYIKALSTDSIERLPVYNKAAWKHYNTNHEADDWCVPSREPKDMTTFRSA
Procedure: (§1) The inhibitory action of PDHK activity was assessed indirectly by measuring the residual PDH activity after kinase reaction in the presence of a test compound.
In the case of human PDHK1 (hPDHK1, Genbank Accession No. L42450.1), a 1.3 kbp fragment encoding this protein was isolated from human liver cDNA by polymerase chain reaction (PCR). Modified hPDHK1 cDNA wherein FLAG-Tag sequence was added to the N terminus was prepared by PCR and cloned into a vector (pET17b-Novagen). The recombinant construct was transformed into Escherichia coli (DH5α-TOYOBO). The recombinant clones were identified, and plasmid DNA was isolated and subjected to the DNA sequence analysis. One clone which had the expected nucleic acid sequence was selected for expression work. […]
Then, 10 μL of substrates (5 mmol/L sodium pyruvate, 5 mmol/L Coenzyme A, 12 mmol/L NAD, 5 mmol/L thiamin pyrophosphate, diluted with buffer) were added. The mixture was incubated at room temperature for 90 min, and the residual PDH activity was measured.
2.5 The absorbance at 340 nm before and after PDH reaction was measured using a microplate reader to detect NADH produced by the PDH reaction. The hPDHK1 inhibition rate (%) of the test compound was calculated from the formula [{(PDH activity of the test compound−PDH activity of control)/PDH activity of blank−PDH activity of control)}×100].

human PDHK2 (hPDHK2) = molecular target: T2, human PDHK2 (hPDHK2) (Homo sapiens, UniProt Q15119); assay: Inhibitory action of PDHK2 activity in vitro (residual PDH activity after kinase reaction); assay type: biochemical; details: PDH/hPDHK2 complex, 45 min kinase reaction at room temperature; read-out: hPDHK2 IC50
T2 construct: made in house; host or cells: Escherichia coli BL21(DE3), pET17b vector
Procedure: as §1
In the case of human PDHK2 (hPDHK2, Genbank Accession No. BC040478.1), modified hPDHK2 cDNA wherein FLAG-Tag sequence was added to the N terminus of hPDHK2 cDNA clone (pReceiver-M01/PDK2-GeneCopoeia) was prepared by PCR and cloned into a vector (pET17b-Novagen). The recombinant construct was transformed into Escherichia coli (DH5α-TOYOBO). The recombinant clones were identified, and plasmid DNA was isolated and subjected to the DNA sequence analysis. One clone which had the expected nucleic acid sequence was selected for expression work.
For expression of hPDHK2 activity, Escherichia coli strain BL21(DE3) cells (Novagen) were transformed with the pET17b vector containing modified hPDHK2 cDNA. The Escherichia coli were grown to an optical density 0.6 ([…]) at 30° C. Protein expression was induced by the addition of 500 μmol/L isopropyl-β-thiogalactopyranoside. The Escherichia coli were cultured at 30° C. for 5 hr and harvested by centrifugation. Resuspension of the Escherichia coli paste was disrupted by a microfluidizer. FLAG-Tagged protein was purified using FLAG affinity gel. The gel was washed with 20 mmol/L HEPES-NaOH, 500 mmol/L sodium chloride, 1% ethylene glycol, and 0.1% Pluronic F-68 (pH 8.0), and the binding protein was eluted with 20 mmol/L HEPES-NaOH, 100 μg/mL FLAG peptide, 500 mmol/L sodium chloride, 1% ethylene glycol, and 0.1% Pluronic F-68 (pH 8.0). The eluted fractions containing FLAG-Tagged protein were pooled, dialyzed against 20 mmol/L HEPES-NaOH, 150 mmol/L sodium chloride, 0.5 mmol/L EDTA, 1% ethylene glycol, and 0.1% Pluronic F-68 (pH 8.0), and preserved at −80° C.
0.05 U/mL PDH and 0.8 μg/mL hPDHK2 were mixed in a buffer (50 mmol/L 3-morpholinopropanesulfonic acid (pH 7.0), 20 mmol/L dipotassium hydrogen phosphate, 60 mmol/L potassium chloride, 2 mmol/L magnesium chloride, 0.4 mmol/L EDTA, and 0.2% Pluronic F-68, 2 mmol/L dithiothreitol), and the mixture was incubated at 4° C. overnight to obtain a PDH/hPDHK2 complex. The test compounds were diluted with DMSO. […] DMSO (1.5 μL) was added to control wells instead of the test compound. […] The mixture was incubated at room temperature for 90 min, and the residual PDH activity was measured. The absorbance at 340 nm before and after PDH reaction was measured using a microplate reader to detect NADH produced by the PDH reaction. The hPDHK2 inhibition rate (%) of the test compound was calculated from the formula [{(PDH activity of test compound−PDH activity of control)/PDH activity of blank−PDH activity of control)}×100].

IC50 (human PDHK1 (hPDHK1)) | IC50 (human PDHK2 (hPDHK2)) | SMILES
5.1 nM | 4.9 nM | C[C@H](O)COc1cc(-c2cnn(C(C)(C)C(N)=O)c2)c2c(c1)[C@@](O)(C(F)(F)F)c1ccccc1-2 [compound (2), 2-(4-{(9R)-9-hydroxy-2-[(2S)-2-hydroxypropoxy]-9-(trifluoromethyl)-9H-fluoren-4-yl}-1H-pyrazol-1-yl)-2-methylpropanamide]
 | 7.4 nM | Cn1cc(-c2cc(OCC(C)(C)O)cc3c2-c2ccccc2[C@]3(O)C(F)(F)F)cn1 [compound (B), (9R)-2-(2-Hydroxy-2-methylpropoxy)-4-(1-methyl-1H-pyrazol-4-yl)-9-(trifluoromethyl)-9H-fluoren-9-ol, reference compound]
